This note sets out measurements from ChEMBL document CHEMBL5528076, “Development of Selective Pyrido[2,3-d]pyrimidin-7(8H)-one-Based Mammalian STE20-Like (MST3/4) Kinase Inhibitors” (J Med Chem, 2024).

The structures appear in SMILES notation. Active and inactive are the calls of the source. No cut-off for these calls is given here.

Data set [1] has as its target T1, Serine/threonine-protein kinase 3 (Homo sapiens, UniProt Q13188).
T1 sequence (Q13188 whole entry): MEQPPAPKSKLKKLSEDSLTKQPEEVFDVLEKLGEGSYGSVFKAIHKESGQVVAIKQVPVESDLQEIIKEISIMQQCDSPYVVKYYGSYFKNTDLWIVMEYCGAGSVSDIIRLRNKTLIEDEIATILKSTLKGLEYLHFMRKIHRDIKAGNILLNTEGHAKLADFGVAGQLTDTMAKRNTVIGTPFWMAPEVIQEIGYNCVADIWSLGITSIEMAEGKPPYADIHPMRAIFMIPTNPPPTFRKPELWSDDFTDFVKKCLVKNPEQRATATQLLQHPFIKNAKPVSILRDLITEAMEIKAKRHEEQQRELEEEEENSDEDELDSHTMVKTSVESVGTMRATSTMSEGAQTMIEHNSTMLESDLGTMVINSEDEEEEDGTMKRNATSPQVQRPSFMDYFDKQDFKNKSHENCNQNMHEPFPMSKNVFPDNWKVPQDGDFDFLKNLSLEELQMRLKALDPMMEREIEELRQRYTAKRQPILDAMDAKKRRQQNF
The experiment in a line: Inhibition of MST2 (unknown origin) expressed in HEK293T cells using NanoGlo as substrate incubated for 20 hrs by NanoBRET assay. Type of data set: cell-based.

Data set [2] concerns the target T2, Serine/threonine-protein kinase 26 (Homo sapiens, UniProt Q9P289). In words: Inhibition of MST4 (unknown origin) expressed in HEK293T cells using NanoGlo as substrate incubated for 20 hrs by NanoBRET assay. It is filed as cell-based. In general terms: BRET reads energy transfer from a luciferase to a nearby fluorophore.
Target sequence in this assay (Q9P289 whole entry): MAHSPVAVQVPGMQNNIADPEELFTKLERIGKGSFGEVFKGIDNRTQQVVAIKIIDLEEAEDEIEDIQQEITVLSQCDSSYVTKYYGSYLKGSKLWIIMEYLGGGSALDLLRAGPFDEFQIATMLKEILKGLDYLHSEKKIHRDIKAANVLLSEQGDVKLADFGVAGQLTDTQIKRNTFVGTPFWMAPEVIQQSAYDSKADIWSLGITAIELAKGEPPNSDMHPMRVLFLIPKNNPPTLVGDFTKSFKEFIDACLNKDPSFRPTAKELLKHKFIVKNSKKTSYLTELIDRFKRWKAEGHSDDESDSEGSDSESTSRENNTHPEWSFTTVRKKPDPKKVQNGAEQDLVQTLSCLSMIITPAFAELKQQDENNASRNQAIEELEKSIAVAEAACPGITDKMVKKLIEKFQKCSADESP
Data set [3] deals with Serine/threonine-protein kinase SIK2 (Homo sapiens, UniProt Q9H0K1). In words: Inhibition of SIK2 (unknown origin) expressed in HEK293T cells using NanoGlo as substrate incubated for 20 hrs by NanoBRET assay. Type of data set: cell-based.
Data set [4] deals with HCT-116. In words: Antiproliferative activity against human HCT-116 cells assessed as reduction in cell viability at 10 uM incubated for 48 hrs by Hoechst33342 staining based analysis. Type of data set: functional.
Data set [5] concerns the target T3, Serine/threonine-protein kinase 3 (Homo sapiens) (UniProt Q13188).
T3 sequence (whole entry): T1 sequence (Q13188 whole entry)
The experiment in a line: Binding affinity to recombinant MST2 (unknown origin) assessed as change in melting temperature by DSF analysis. (In general: DSF heats the sample and reads unfolding from a dye or from intrinsic fluorescence.)

Data set [6] is described as follows: Microsomal stability in Sprague-Dawley rat liver microsome incubated for 1 hr by HPLC analysis. It is filed as ADME. Conditions: liver microsomes, read-out: Stability. (Microsomes from liver hold many membrane-bound enzymes, among them those of drug oxidation.)
Data set [7] addresses Casein kinase I isoform epsilon (Homo sapiens, UniProt P49674). In words: Inhibition of CK1e (unknown origin) expressed in HEK293T cells using NanoGlo as substrate incubated for 20 hrs by NanoBRET assay. It is filed as cell-based.
Data set [8] concerns HCT-116. The experiment in a line: Antiproliferative activity against human HCT-116 cells assessed as reduction in cell viability at 10 uM incubated for 6 to 72 hrs by Hoechst33342 staining based analysis. It is filed as functional. The conditions noted are these: time 6-72 hrs.
Data set [9] has as its system HCT-116. The experiment in a line: Antiproliferative activity against human HCT-116 cells assessed as reduction in cell viability at 1 to 10 uM incubated for 24 hrs by Hoechst33342 staining based analysis. It is filed as functional. The conditions noted are these: dose 1-10 µM.
The test system of data set [10] is HCT-116. In words: Induction of cell cycle arrest in human HCT-116 cells assessed as accumulation of cells at G1 phase at 10 uM incubated for 72 hrs by FUCCI based analysis. It is filed as functional.
Data set [11] deals with T4, Serine/threonine-protein kinase Nek2 (Homo sapiens, UniProt P51955).
T4 sequence (P51955 whole entry): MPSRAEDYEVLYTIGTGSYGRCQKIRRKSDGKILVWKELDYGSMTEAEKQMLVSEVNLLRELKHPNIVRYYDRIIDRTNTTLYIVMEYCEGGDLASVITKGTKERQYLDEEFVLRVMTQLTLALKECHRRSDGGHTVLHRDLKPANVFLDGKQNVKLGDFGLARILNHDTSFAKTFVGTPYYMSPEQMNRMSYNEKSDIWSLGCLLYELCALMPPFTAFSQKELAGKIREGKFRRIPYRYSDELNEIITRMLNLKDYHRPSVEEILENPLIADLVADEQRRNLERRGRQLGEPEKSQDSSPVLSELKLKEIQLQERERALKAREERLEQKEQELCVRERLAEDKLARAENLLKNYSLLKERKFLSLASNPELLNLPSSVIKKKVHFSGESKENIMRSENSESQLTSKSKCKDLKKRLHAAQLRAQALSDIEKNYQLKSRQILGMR
In words: Inhibition of NEK2 (unknown origin) expressed in HEK293T cells using NanoGlo as substrate incubated for 20 hrs by NanoBRET assay. Type of data set: cell-based.

For data set [12], the target named is Serine/threonine-protein kinase PAK 1 (Homo sapiens) (UniProt Q13153). The experiment in a line: Binding affinity to recombinant PAK1 (unknown origin) assessed as change in melting temperature by DSF analysis.
For data set [13], the target named is T2, Serine/threonine-protein kinase 26. In words: Binding affinity to recombinant MST4 (unknown origin) assessed as change in melting temperature by DSF analysis.
Target sequence in this assay (Q9P289 2-416 limits assumed): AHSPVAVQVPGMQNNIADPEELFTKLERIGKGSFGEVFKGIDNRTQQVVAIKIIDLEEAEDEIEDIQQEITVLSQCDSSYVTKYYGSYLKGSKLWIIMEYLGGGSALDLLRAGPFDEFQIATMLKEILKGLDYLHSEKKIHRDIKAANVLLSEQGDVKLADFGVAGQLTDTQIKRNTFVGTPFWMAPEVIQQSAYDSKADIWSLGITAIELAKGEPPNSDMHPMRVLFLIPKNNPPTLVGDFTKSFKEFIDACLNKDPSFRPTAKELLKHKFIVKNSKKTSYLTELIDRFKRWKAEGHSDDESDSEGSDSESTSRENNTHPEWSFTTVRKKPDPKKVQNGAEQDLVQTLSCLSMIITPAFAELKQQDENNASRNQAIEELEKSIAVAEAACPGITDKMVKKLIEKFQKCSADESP
The target of data set [14] is T5, Serine/threonine-protein kinase 4 (Homo sapiens, UniProt Q13043).
T5 sequence (Q13043 whole entry): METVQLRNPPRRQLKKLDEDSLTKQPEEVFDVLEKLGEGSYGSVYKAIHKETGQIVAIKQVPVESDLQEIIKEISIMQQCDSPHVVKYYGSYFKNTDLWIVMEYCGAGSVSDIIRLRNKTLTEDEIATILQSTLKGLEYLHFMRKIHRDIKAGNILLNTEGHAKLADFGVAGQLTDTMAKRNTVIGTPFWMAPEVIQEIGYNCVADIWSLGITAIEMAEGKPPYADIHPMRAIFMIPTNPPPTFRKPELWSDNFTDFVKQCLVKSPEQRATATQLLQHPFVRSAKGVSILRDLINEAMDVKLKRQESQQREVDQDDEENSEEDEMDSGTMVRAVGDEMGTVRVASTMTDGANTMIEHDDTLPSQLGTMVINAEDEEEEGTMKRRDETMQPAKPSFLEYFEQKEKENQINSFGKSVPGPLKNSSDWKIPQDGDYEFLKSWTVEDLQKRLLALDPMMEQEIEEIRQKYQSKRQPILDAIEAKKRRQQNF
In words: Inhibition of MST1 (unknown origin) expressed in HEK293T cells using NanoGlo as substrate incubated for 20 hrs by NanoBRET assay. It is filed as cell-based.

Data set [15] concerns the target Tyrosine-protein kinase Fes/Fps (Homo sapiens, UniProt P07332). In words: Inhibition of FES (unknown origin) expressed in HEK293T cells using NanoGlo as substrate incubated for 20 hrs by NanoBRET assay. Type of data set: cell-based.
Data set [16] deals with T6, Serine/threonine-protein kinase 24 (Homo sapiens, UniProt Q9Y6E0). The experiment in a line: Inhibition of MST3 (unknown origin) expressed in intact HEK293T cells using NanoGlo as substrate incubated for 20 hrs by NanoBRET assay. Type of data set: cell-based.
Target sequence in this assay (Q9Y6E0 whole entry): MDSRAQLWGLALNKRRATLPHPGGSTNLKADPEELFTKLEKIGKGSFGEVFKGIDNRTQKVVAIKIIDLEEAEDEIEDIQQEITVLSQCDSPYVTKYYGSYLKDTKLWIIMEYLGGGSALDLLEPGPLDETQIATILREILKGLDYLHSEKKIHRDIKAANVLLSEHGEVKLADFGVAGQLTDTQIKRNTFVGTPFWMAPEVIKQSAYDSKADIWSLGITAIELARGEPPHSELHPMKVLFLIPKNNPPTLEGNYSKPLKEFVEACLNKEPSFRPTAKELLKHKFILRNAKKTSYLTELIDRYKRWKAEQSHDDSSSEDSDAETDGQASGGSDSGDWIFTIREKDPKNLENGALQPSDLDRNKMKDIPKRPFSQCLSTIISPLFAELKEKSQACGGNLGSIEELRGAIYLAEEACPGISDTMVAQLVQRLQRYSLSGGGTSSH
For data set [17], the target named is T7, Serine/threonine-protein kinase 4 (Homo sapiens) (UniProt Q13043).
T7 sequence (whole entry): T5 sequence (Q13043 whole entry)
In words: Binding affinity to recombinant MST1 (unknown origin) assessed as change in melting temperature by DSF analysis.

Data set [18] addresses T6, Serine/threonine-protein kinase 24. The experiment in a line: Binding affinity to recombinant MST3 (unknown origin) assessed as change in melting temperature by DSF analysis.
Target sequence in this assay (Q9Y6E0 whole entry, looked up): as the sequence (Q9Y6E0 whole entry) above
Data set [19] shares this target. In words: Inhibition of MST3 (unknown origin) expressed in lysed HEK293T cells using NanoGlo as substrate incubated for 20 hrs by NanoBRET assay. It is filed as cell-based.
Target sequence in this assay (Q9Y6E0 whole entry): as above
Data set [20] deals with HCT-116. The experiment in a line: Induction of apoptosis in human HCT-116 cells assessed as effect on cell count at 1 uM incubated for 72 hrs by Hoechst33342 staining based analysis. It is filed as functional.

Sequence of Serine/threonine-protein kinase SIK2 (Q9H0K1 whole entry): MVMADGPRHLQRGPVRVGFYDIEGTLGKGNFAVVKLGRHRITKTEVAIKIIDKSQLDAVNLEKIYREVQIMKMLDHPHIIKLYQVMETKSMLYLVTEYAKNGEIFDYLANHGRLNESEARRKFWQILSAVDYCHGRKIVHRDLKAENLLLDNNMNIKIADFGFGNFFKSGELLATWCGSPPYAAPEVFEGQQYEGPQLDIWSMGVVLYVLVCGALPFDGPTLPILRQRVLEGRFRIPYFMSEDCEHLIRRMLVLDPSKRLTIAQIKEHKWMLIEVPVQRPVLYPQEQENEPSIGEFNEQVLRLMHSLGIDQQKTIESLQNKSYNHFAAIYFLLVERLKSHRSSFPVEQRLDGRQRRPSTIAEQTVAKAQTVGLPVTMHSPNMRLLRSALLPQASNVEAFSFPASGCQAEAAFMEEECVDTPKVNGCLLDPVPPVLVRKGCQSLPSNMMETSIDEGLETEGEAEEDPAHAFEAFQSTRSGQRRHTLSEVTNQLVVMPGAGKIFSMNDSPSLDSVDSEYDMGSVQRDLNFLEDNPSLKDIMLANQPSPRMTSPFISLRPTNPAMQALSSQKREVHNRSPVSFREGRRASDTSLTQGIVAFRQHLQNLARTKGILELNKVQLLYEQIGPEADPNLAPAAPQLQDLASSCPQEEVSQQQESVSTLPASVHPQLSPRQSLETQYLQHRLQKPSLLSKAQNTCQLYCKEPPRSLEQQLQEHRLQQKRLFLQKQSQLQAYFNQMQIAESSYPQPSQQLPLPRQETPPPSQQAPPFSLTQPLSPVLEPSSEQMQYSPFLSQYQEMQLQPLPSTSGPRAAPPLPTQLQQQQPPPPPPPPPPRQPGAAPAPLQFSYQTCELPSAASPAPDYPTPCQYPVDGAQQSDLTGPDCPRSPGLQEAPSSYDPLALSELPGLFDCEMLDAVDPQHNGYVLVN
Sequence of Casein kinase I isoform epsilon (P49674 whole entry, canonical isoform): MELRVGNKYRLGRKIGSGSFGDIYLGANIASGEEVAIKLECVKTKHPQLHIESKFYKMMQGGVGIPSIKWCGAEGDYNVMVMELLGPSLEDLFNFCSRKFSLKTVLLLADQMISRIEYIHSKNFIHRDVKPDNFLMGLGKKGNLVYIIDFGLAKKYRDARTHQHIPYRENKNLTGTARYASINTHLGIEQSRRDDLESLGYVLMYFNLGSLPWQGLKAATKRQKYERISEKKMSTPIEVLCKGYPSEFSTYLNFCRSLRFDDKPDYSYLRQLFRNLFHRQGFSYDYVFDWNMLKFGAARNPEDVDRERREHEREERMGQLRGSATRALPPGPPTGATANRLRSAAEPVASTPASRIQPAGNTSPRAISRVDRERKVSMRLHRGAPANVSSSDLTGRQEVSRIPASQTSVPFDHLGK
Sequence of Serine/threonine-protein kinase PAK 1 (Homo sapiens) (Q13153 whole entry): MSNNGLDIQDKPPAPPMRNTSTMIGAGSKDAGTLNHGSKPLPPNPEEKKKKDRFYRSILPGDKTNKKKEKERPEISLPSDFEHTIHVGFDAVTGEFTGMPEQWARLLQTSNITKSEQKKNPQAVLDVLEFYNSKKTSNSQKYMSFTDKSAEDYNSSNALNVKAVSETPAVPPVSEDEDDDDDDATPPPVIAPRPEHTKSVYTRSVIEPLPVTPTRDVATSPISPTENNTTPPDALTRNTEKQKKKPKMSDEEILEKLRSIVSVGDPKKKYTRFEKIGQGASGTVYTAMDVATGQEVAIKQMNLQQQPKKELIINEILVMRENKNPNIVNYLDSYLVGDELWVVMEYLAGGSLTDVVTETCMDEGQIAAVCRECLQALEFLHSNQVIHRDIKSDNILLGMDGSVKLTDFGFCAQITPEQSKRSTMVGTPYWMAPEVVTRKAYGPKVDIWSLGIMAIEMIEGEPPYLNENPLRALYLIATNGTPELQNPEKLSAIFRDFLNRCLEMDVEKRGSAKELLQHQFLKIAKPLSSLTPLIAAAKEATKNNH
Sequence of Tyrosine-protein kinase Fes/Fps (P07332 whole entry): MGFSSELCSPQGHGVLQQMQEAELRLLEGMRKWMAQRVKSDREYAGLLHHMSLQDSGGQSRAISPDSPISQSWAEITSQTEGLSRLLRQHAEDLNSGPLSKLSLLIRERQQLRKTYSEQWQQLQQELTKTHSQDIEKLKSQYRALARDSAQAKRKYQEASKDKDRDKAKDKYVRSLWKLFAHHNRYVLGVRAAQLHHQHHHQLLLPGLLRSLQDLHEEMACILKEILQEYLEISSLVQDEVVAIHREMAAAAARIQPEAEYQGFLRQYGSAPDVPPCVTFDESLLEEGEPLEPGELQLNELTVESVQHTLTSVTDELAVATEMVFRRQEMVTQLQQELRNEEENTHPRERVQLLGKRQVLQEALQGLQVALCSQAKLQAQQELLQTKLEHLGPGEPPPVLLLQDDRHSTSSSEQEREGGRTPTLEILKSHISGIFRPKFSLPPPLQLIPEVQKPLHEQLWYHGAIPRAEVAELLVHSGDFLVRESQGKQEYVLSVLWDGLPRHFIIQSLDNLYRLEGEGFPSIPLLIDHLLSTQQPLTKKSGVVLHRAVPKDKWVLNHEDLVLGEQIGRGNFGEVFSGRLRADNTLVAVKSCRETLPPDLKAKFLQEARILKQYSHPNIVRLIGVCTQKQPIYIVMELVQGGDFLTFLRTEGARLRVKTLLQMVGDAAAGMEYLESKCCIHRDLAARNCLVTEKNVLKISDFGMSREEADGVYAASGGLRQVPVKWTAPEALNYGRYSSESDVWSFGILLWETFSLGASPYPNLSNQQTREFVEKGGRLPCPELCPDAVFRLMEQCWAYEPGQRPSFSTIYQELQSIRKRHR

As to `Cc1cccc(-c2ccc(-c3cc4cnc(NC(CO)CO)nc4n(CCCCN)c3=O)c(Cl)c2)n1`, the EC50 in data set [1] was above 50 µM; in data set [2] it was 0.583 µM; in [3] it was 7.4 µM; in [7], 17.6 µM; in [11] it was above 5 µM; in data set [14] it was above 50 µM. For the same compound, the EC50 in data set [15] was above 50 µM; in data set [16] it was 0.057 µM; in data set [19], 0.081 µM. Moreover, the values for the Activity with HCT-116 [4] and in the data set with HCT-116 [9] were 30% and above 90%, respectively. In addition, the ΔTm in data set [5] came out at 4.6 °C; in data set [12] it was 5.1 °C; in data set [13], 8.1 °C; in data set [17], 2.1 °C; in data set [18], 10.6 °C. Besides, in data set [6], the remaining at 1 h was determined as 90%. In addition, the outcome in the data set on HCT-116 [8] was inactive. Moreover, the outcome in the data set on HCT-116 [10] and with HCT-116 [20] was Active.

For orientation: EC50 means the concentration at which the effect is half-maximal. As a reminder, the ΔTm is the shift of the melting midpoint relative to a reference.
